Structures can show the parent of a compound that is named as a salt. Where two headings read alike, the source gives them in different places.
Columns and labels:
[1] = Acute toxicity in mice after intraperitoneal and oral administration; conditions: mouse, in vivo
Outline: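 Female albino Swiss mice (20-30 g) dosed i.p. or orally at four log-scaled doses in 0.5% Methocel (10 ml/kg), 4 mice/dose. Mortality recorded at 7 days; LD₅₀ with fiducial limits by Weil's method.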

[2] = tested on: noradrenaline induced contraction of urethra; experiment: Effects on urethral contractions (noradrenaline-induced) in anaesthetized dogs; type: in vivo; conditions: for ED50: Canis lupus familiaris, iv; for DBP/Urethra ratio: ratio between the active doses (selectivity index), * = non-selective: substantial effect on both urethra and DBP
Description: (§1) In order to monitor systemic blood pressure (BP), a PE catheter was introduced into the aortic arch through the right common carotid artery.
(§2) A collateral of the left femoral vein was cannulated for infusion of anaesthetic, and the right femoral vein was cannulated for administration of drugs. For intrarterial (i.a.) injection of noradrenaline (NA), a PE catheter was introduced into the lower portion of abdominal aorta via the right external iliac artery. Through such procedure, NA was selectively distributed to the lower urinary tract. Via a midline laparotomy, the urinary bladder and proximal urethra were exposed. In order to prevent the filling of the bladder, the two ureters were cannulated and the urine led outside. In order to record the prostatic urethral pressure, a Mikro-tip catheter (6 F) was introduced into the bladder via the external urethral meatus, and withdrawn until the pressure transducer was positioned in the prostatic urethra. A ligature was secured between the neck of the bladder and urethra to isolate the response of the latter and avoid any interaction with the bladder. Another ligature was put around the Mikro-tip catheter at the external urethral meatus, to secure the catheter itself. After a stabilizing period following surgical procedure (30 min), in which arterial and prostatic urethral pressure were continuously monitored as basal values, i.a. administration of NA was made at intervals of 10 min. The dose of NA chosen was such to produce an increase of at least 100% in urethral pressure. The test compounds were administered i.v. in a cumulative manner with intervals of 15-20 min between administrations. I.a. injections of NA were repeated approximately 5 min. after every dosing of test compound. Dose response curves were constructed computing the percentage inhibition to the increase in urethral pressure (NA induced), and the percentage drop in blood pressure produced by the test compound.

diastolic blood pressure = experiment: Effects on blood pressure in anaesthetized dogs; type: in vivo; conditions: Canis lupus familiaris, iv
Description: as §1, §2

5HT1A receptors = biological target: T1, 5HT1A receptors (Rattus norvegicus, UniProt P19327); experiment: [3H]8-OH-DPAT binding (5HT1A receptors), rat hippocampus membranes; conditions: for IC50: rat hippocampus crude membranes, [3H]8-OH-DPAT 1.0 nM, 25°C 30 min, read-out: Receptor Binding IC50 (nM) 5-HT1a
T1 construct: Rat hippocampi were homogenized; from tissue; host or cells: rat hippocampus membranes
T1 sequence (P19327 1-422): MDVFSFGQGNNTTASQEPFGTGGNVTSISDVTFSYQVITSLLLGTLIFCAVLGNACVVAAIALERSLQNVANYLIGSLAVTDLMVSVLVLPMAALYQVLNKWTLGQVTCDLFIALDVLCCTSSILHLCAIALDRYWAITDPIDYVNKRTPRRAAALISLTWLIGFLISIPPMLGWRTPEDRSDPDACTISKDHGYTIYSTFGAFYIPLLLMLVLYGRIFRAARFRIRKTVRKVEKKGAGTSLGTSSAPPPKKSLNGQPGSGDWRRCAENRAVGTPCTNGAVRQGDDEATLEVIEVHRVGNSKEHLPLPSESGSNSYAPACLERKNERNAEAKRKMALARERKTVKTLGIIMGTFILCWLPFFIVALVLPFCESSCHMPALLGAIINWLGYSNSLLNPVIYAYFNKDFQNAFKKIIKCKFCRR
Procedure: Rat hippocampi were homogenized in 50 volumes of original wet weight of ice-cold 50 mM Tris-HCl buffer pH 7.4. The homogenates were centrifuged at 48,000 x g for 10 minutes, and the pellets were resuspended in the same volume of ice-cold buffer, incubated for 10 minutes at 37°C, centrifuged and resuspended two more times. The final pellets obtained were resuspended in the same volume of buffer and incubated according to the conditions reported in the table below.
The incubations were terminated after the appropriate time (see table) by rapid filtration through Whatman GF/B filters using a Brandel cell harvester. The filters were washed twice with 15 ml of ice-cold buffer (see table). The radioactivity retained on the filters was determined by liquid scintillation counting. Nonspecific binding (which amounted generally to 10-30%) was evaluated by adding high concentrations of the specific displacers (see table). All the compounds were initially tested at 1x10⁻⁶ M concentration, and in the presence of significant displacing activity, a complete competition curve was generated (down to a concentration of 10⁻¹¹ M). All the samples were run in triplicate.
The competition curves were always analyzed (to evaluate the IC₅₀ values) by non linear curve fitting of the logistic equation according to the method reported by De Lean et al. (Am. J. Physiol., 235, E97, 1978), utilizing the ALLFIT program [publically available from the National Institutes of Health (N.I.H.) Bethesda, Maryland, USA] written for the IBM PC.

α₁ receptors = experiment: [3H]prazosin binding (α1 receptors), rat cerebral cortex membranes; conditions: for IC50: rat cerebral cortex crude membranes, [3H]prazosin 0.35 nM, 25°C 30 min, read-out: Receptor Binding IC50 (nM) α1
rat bladder strips = experiment: K+-induced contractions of rat bladder strips; type: cell-based; conditions: 80 mM KCl, drug added 30 minutes before
Procedure: The whole bladder of the rat was removed and immediately placed in Krebs solution warmed at 37°C. […] Each strip was placed in a 10 ml organ bath and connected, under a constant load of 1 g, to an isometric strain gauge (DY-1 Basile, Comerio, Varese, Italy). […] After a 60 minutes equilibration period the strips were exposed to 80 mM KCl (final concentration). […] When the tonic contraction was stable, the strips were washed and 30 minutes later a new contraction was induced. After having recorded two or more reproducible responses, one concentration of the tested drugs was added to the bath and 30 minutes later a new contraction was induced. The experimental groups consisted of at least two preparations taken from different animals for each concentration of drug tested. The IC₅₀ values of inhibition of agonist-induced contractions were evaluated by linear regression analysis.

[3] = ip, female albino Swiss mice, intraperitoneal, mortality recorded 7 days after administration, read-out: Acute Toxicity in Mice LD50 (mg/kg) i.p.
[4] = female albino Swiss mice, oral, mortality recorded 7 days after administration, read-out: Acute Toxicity in Mice LD50 (mg/kg) p.o.
[5] = anaesthetized male beagle dogs, i.v. cumulative, active dose in inhibiting by 50% the noradrenaline induced contraction of urethra, read-out: Urethra ED50
[6] = anaesthetized male beagle dogs, i.v. cumulative, active dose in lowering diastolic blood pressure by 25%, read-out: DBP ED25
[7] = phasic contraction, read-out: K+ Stimulation of Rat Bladder IC50 (μM) Contractions Phasic
[8] = tonic contraction, read-out: K+ Stimulation of Rat Bladder IC50 (μM) Contractions Tonic

Compound	DBP/Urethra ratio [2]	LD50 at 168 h [1, 3]	LD50 at 168 h [1, 4]	IC50 (5HT1A receptors)	IC50 (α₁ receptors)	IC50 (rat bladder strips; [7])	IC50 (rat bladder strips; [8])	also measured
COc1ccccc1N1CCN(CCCCOc2cccc3c(=O)c(C)c(-c4ccccc4)oc23)CC1.Cl.Cl	13.1	–	–	–	–	–	–	LD50 at 168 h ([1]; ip, read-out: Acute Toxicity in Mice LD50 (mg/kg) i.p.): 399 mg/kg; LD50 at 168 h ([1]; po, read-out: Acute Toxicity in Mice LD50 (mg/kg) p.o.): 2240 mg/kg; ED50 ([2]; read-out: Urethra ED50 (µg/kg)): 57 µg/kg; ED25 (diastolic blood pressure; read-out: DBP ED25 (µg/kg)): 745 µg/kg
COc1ccccc1N1CCN(CCCOC(=O)c2cccc3c(=O)c(C)c(-c4ccccc4)oc23)CC1.Cl.Cl [Example 5, 8-{3-[4-(2-methoxyphenyl)-1-piperazinyl]-propoxycarbonyl}-3-methyl-4-oxo-2-phenyl-4H-1-benzopyran dihydrochloride]	29.0	621 mg/kg	> 3000 mg/kg	19 nM	20 nM	–	–	ED50 [2, 5]: 37 µg/kg; ED25 (diastolic blood pressure; [6]): 1070 µg/kg
COc1ccccc1N1CCN(CCN(C)C(=O)c2cccc3c(=O)c(C)c(-c4ccccc4)oc23)CC1.Cl [Example 16, 8-{N-methyl-2-[4-(2-methoxyphenyl)-1-piperazinyl]-ethylcarbamoyl}-3-methyl-4-oxo-2-phenyl-4H-1-benzopyran monohydrochloride]	–	345 mg/kg	778 mg/kg	1050 nM	220 nM	1.6 µM	2.2 µM	–
COc1ccccc1N1CCN(CCC(O)c2cccc3c(=O)c(C)c(-c4ccccc4)oc23)CC1.Cl (stereo not shown) [Example 20, 8-{1-Hydroxy-3-[4-(2-methoxyphenyl)-1-piperazinyl]-propyl}-3-methyl-4-oxo-2-phenyl-4H-1-benzopyran hydrochloride]	–	297 mg/kg	594 mg/kg	85 nM	169 nM	2.7 µM	2.5 µM	–
COc1ccccc1N1CCN(CCCC(O)c2cccc3c(=O)c(C)c(-c4ccccc4)oc23)CC1.Cl.O (stereo not shown) [Example 21, 8-{1-hydroxy-4-[4-(2-methoxyphenyl)-1-piperazinyl]-butyl}-3-methyl-4-oxo-2-phenyl-4H-1-benzopyran hydrochloride monohydrate]	19.2	297 mg/kg	566 mg/kg	33 nM	17 nM	–	–	ED50 ([2]; read-out: Urethra ED50 (µg/kg)): 6.6 µg/kg; ED25 (diastolic blood pressure; read-out: DBP ED25 (µg/kg)): 127 µg/kg
COc1ccccc1N1CCN(CCSCc2cccc3c(=O)c(C)c(-c4ccccc4)oc23)CC1.Cl [Example 29, 8-{2-[4-(2-methoxyphenyl)-1-piperazinyl]-ethylthiomethyl}-3-methyl-4-oxo-2-phenyl-4H-1-benzopyran hydrochloride]	–	730 mg/kg	> 3000 mg/kg	45 nM	86 nM	10 µM	10 µM	–
COc1ccccc1N1CCN(CCNc2cccc3c(=O)c(C)c(-c4ccccc4)oc23)CC1.Cl.Cl [Example 32, 8-{2-[4-(2-methoxyphenyl)-1-piperazinyl]-ethylamino}-3-methyl-4-oxo-2-phenyl-4H-1-benzopyran dihydrochloride]	–	301 mg/kg	> 2000 mg/kg	46 nM	119 nM	10 µM	> 10 µM	–
COc1ccccc1N1CCN(CCCNc2cccc3c(=O)c(C)c(-c4ccccc4)oc23)CC1 [Example 33, 8-{3-[4-(2-methoxyphenyl)-1-piperazinyl]-propylamino}-3-methyl-4-oxo-2-phenyl-4H-1-benzopyran hydrochloride 2.75-hydrate]	–	399 mg/kg	> 2000 mg/kg	38 nM	17 nM	10 µM	10 µM	–
COc1ccccc1N1CCN(CCCCNc2cccc3c(=O)c(C)c(-c4ccccc4)oc23)CC1 [Example 34, 8-{4-[4-(2-methoxyphenyl)-1-piperazinyl]-butylamino}-3-methyl-4-oxo-2-phenyl-4H-1-benzopyran hydrochloride hemihydrate]	–	> 500 mg/kg	–	34 nM	30 nM	2.8 µM	3.6 µM	–
COc1cccc(OC)c1OCCNCCOc1cccc2c(=O)c(C)c(-c3ccccc3)oc12.Cl [Example 44, 8-{2-[2-(2,6-dimethoxyphenoxy)-ethylamino]-ethoxy}-3-methyl-4-oxo-2-phenyl-4H-1-benzopyran hydrochloride]	–	84 mg/kg	399 mg/kg	201 nM	685 nM	0.6 µM	0.5 µM	–
COc1ccccc1N1CCN(CC(O)COc2cccc3c(=O)c(C)c(-c4ccccc4)oc23)CC1.Cl (stereo not shown) [Example 45, 8-{2-hydroxy-3-[4-(2-methoxyphenyl)-1-piperazinyl]-propoxy}-3-methyl-4-oxo-2-phenyl-4H-1-benzopyran hydrochloride]	11.3	329 mg/kg	1730 mg/kg	106 nM	15 nM	–	–	ED50 [2, 5]: 16.4 µg/kg; ED25 (diastolic blood pressure; [6]): 186 µg/kg
Cc1c(-c2ccccc2)oc2c(C(=O)OCCN3CCCCC3)cccc2c1=O [Flavoxate, 8-(2-piperidinoethoxycarbonyl)-3-methyl-4-oxo-2-phenyl-4H-1-benzopyran, reference compound]	–	385 mg/kg	808 mg/kg	> 1000 nM	> 1000 nM	13 µM	13 µM	affinity for the 5HT1A-serotoninergic receptors (5HT1A receptors; statement in words): practically devoid of affinity; affinity for the α₁-adrenergic receptors (α₁ receptors; statement in words): practically devoid of affinity
COc1cc2nc(N3CCN(C(=O)c4ccco4)CC3)nc(N)c2cc1OC [Prazosin, 1-(4-amino-6,7-dimethoxy-2-quinazonlinyl)-4-(2-furoyl)-piperazine, reference compound]	1.8*	–	–	–	–	–	–	ED50 [2, 5]: 3.6 µg/kg; selectivity for the mammalian lower urinary tract (antagonizing urethral contractions versus lowering blood pressure) ([2]; statement in words): do not exhibit such selectivity; ED25 (diastolic blood pressure; read-out: DBP ED25 (µg/kg)): 6.6 µg/kg
Cc1c(-c2ccccc2)oc2c(C(=O)OC(C)(C)CN3CCCCC3)cccc2c1=O.Cl [Terflavoxate, 8-(1,1-dimethyl-2-piperidino-ethoxycarbonyl)-3-methyl-4-oxo-2-phenyl-4H-1-benzopyran hydrochloride, reference compound]	–	–	–	–	–	–	–	ED50 [2, 5]: > 10000 µg/kg; effect on urethral contractions ([2]; statement in words): no effect on urethral contractions; ED25 (diastolic blood pressure; [6]): 6060 µg/kg
